Assay results published in patent publication US6951733B2, “Method for testing drug susceptibility of Mycobacterium tuberculosis” (priority 2000, dated 2005).
“And” between values parts separate entries of the source, which are not always exact repeats. Equal values may be shown once. Read-outs that look alike come from different tables or passages of the source.

What was measured:
[1] = test system: strain H37Rv; type: cell-based, M. tuberculosis
[2] = test system: strain 9719; type: cell-based, M. tuberculosis; details: for Proportions (%%) of resistant bacteria as determined by agar plates containing the drug (μg/ml) 300 / Proportions (%%) of resistant bacteria as determined by agar plates containing the drug (μg/ml) 900 / Proportions (%%) of resistant bacteria as determined by agar plates containing the drug (μg/ml) 1200: strain 9719
[3] = test system: strain 9719; experiment: microbe, parasite or virus in culture; type: cell-based, M. tuberculosis; details: read-out: MIC (μg/ml) BACTEC
[4] = test system: 55 M. tuberculosis clinical isolates; type: cell-based
[5] = test system: 13 M. tuberculosis pan-susceptible strains; experiment: MIC determination on HSTB agar, susceptible strains; type: cell-based
[6] = test system: ten strains previously identified as INH-resistant; experiment: microbe, parasite or virus in culture; type: cell-based, M. tuberculosis; details: Mycobacterium tuberculosis, HSTB agar; greater than 3.2 eight strains, 1.6 one strain
[7] = 0% of resistant bacteria incorporated
[8] = 10% of resistant bacteria incorporated
[9] = 25% of resistant bacteria incorporated
[10] = 50% of resistant bacteria incorporated
[11] = 100% of resistant bacteria (resistant mutant)
[12] = strains Susceptible by the BACTEC 300 μg/ml
[13] = strains Susceptible by the BACTEC 900 μg/ml

NC(=O)c1cnccn1 [PZA, pyrazinamide]
MIC (μg/ml) Agar [1]: 900 µg/mL and >1200 µg/mL
growth in the agar medium with the drug ([2]; pansusceptible strain 9719, all drug-concentrations (300, 900, 1200 μg/ml)): completely inhibited
Proportions (%%) of resistant bacteria as determined by agar plates containing the drug (μg/ml) 300 [2, 7]: 0%
Proportions (%%) of resistant bacteria as determined by agar plates containing the drug (μg/ml) 900 [2, 7]: 0%
Proportions (%%) of resistant bacteria as determined by agar plates containing the drug (μg/ml) 1200 [2, 7]: 0%
Proportions (%%) of resistant bacteria as determined by agar plates containing the drug (μg/ml) 300 [2, 8]: 13.8%
Proportions (%%) of resistant bacteria as determined by agar plates containing the drug (μg/ml) 900 [2, 8]: 8.6%
Proportions (%%) of resistant bacteria as determined by agar plates containing the drug (μg/ml) 1200 [2, 8]: 8.6%
Proportions (%%) of resistant bacteria as determined by agar plates containing the drug (μg/ml) 300 [2, 9]: 18.1%
Proportions (%%) of resistant bacteria as determined by agar plates containing the drug (μg/ml) 900 [2, 9]: 16.2%
Proportions (%%) of resistant bacteria as determined by agar plates containing the drug (μg/ml) 1200 [2, 9]: 16.5%
Proportions (%%) of resistant bacteria as determined by agar plates containing the drug (μg/ml) 300 [2, 10]: 35.9%
Proportions (%%) of resistant bacteria as determined by agar plates containing the drug (μg/ml) 900 [2, 10]: 36.9%
Proportions (%%) of resistant bacteria as determined by agar plates containing the drug (μg/ml) 1200 [2, 10]: 40.0%
Proportions (%%) of resistant bacteria as determined by agar plates containing the drug (μg/ml) 300 [2, 11]: 97.8%
Proportions (%%) of resistant bacteria as determined by agar plates containing the drug (μg/ml) 900 [2, 11]: 96.1%
Proportions (%%) of resistant bacteria as determined by agar plates containing the drug (μg/ml) 1200 [2, 11]: 86.2%
MIC ([3]; Mycobacterium tuberculosis, 9719, pH 6, strain 9719, 0% of resistant bacteria incorporated): ≤ 100 µg/mL
MIC ([3]; Mycobacterium tuberculosis, 9719, pH 6, strain 9719, 10% of resistant bacteria incorporated): > 900 µg/mL
MIC ([3]; Mycobacterium tuberculosis, 9719, pH 6, strain 9719, 25% of resistant bacteria incorporated): > 900 µg/mL
MIC ([3]; Mycobacterium tuberculosis, 9719, pH 6, strain 9719, 50% of resistant bacteria incorporated): > 900 µg/mL
Number of strains by the agar proportion method, 900 μg/ml Resistant [4]: 27
Number of strains by the agar proportion method, 1200 μg/ml Resistant [4]: 27 and 26
Number of strains by the agar proportion method, 900 μg/ml Resistant [4, 12]: 0
Number of strains by the agar proportion method, 1200 μg/ml Resistant [4, 12]: 0
Number of strains by the agar proportion method, 900 μg/ml Resistant [4, 13]: 2
Number of strains by the agar proportion method, 1200 μg/ml Resistant [4, 13]: 1

NNC(=O)c1ccncc1 [INH, isoniazid]
critical concentration for detection of the high level of resistance [5]: 1.0 µg/mL
critical concentration for detection of the low level of resistance [5]: 0.2 µg/mL
MIC [6]: > 3.2 µg/mL
